Assay results published in patent US12668584B2, “Heterocyclic compounds as kinase inhibitors for therapeutic uses” (National Health Research Institutes, priority 2019, dated 2026).
pIC50: −log10 of the molar value.

Assays:
[1] = system: BaF3-CSF1R-1600 cells (express ETV6-CSF1R fusion protein); assay: MTS cell viability assay, BaF3-CSF1R-1600; format: cell-based; details: 72 h, read-out: Cellular Proliferation Assay BaF3-CSF1R GI50
Procedure: (§1) Studies were conducted to evaluate […] anticancer activity of certain compounds described in EXAMPLE 1 using 3-(4,5-dimethylthiazol-2-yl)-5-(3-carboxymethoxyphenyl)-2-(4-sulfophenyl)-2H-tetrazolium) (MTS) cell viability assays. Results from these studies are shown in Table 2 below (see columns 3 and 4).
(§2) The cell lines M-NFS-60 (ATCC® CRL-1838™) and BaF3-CSF1R-1600 were obtained from American Type Culture Collection (ATCC, Manassas, VA, USA). The stable BaF3-CSF1R-1600 cell line expresses ETV6-CSF1R fusion protein consisting of N-terminal ETS-variant gene 6 protein (ETV6 residues M1-G337) and CSF1R tyrosine kinase (CSF1R residues L533-C972). The M-NSF-60 and BaF3-CSF1R-1600 cells were cultured in RPMI1640 medium supplemented with 10% fetal bovine serum, 0.05 mM 2-ME, 10 U/ml penicillin, and 10 µg/ml streptomycin at 37° C. and 5% CO2.
(§3) M-NFS-60 and BaF3-CSF1R-1600 cells were seeded in 96-well plates at a density of 10000 cells/100 μl and 8000 cells/100 μl per well, respectively, for 16 h and treated with vehicle or various concentrations of test compounds in medium for 72 h. Viable cells were quantified using the MTS method (Promega, Madison, WI, USA) according to manufacturer's recommended protocol. The results were determined by measuring absorbance at 490 nm using a plate reader (Victor 2). The GI50 value was defined as the amount of compound that caused 50% reduction in cell viability in comparison with DMSO-treated (vehicle) control and was calculated using Prism GraphPad Prism version 6 software (GraphPad).

[2] = system: M-NFS-60 cells; assay: MTS cell viability assay, M-NFS-60; format: cell-based; details: 72 h, read-out: Cellular Proliferation Assay M-NFS-60 (nM) GI50
Procedure: as §1, §2, §3

[3] = target: T1, CSF1R kinase (recombinant N-terminal GST-CSF1R, residues L534-C972) (Homo sapiens, UniProt P07333); assay: CSF1R Kinase-Glo assay; format: biochemical; details: 40 μM ATP, 30° C. 180 min, read-out: Enzymatic Assay CSF1R enzyme IC50
T1 construct: Recombinant N-terminal GST-CSF1R (CSF1R residues L534-C972) containing the CSFIR kinase domain; made in house; host or cells: Sf9 insect cells
T1 sequence (P07333 534-972): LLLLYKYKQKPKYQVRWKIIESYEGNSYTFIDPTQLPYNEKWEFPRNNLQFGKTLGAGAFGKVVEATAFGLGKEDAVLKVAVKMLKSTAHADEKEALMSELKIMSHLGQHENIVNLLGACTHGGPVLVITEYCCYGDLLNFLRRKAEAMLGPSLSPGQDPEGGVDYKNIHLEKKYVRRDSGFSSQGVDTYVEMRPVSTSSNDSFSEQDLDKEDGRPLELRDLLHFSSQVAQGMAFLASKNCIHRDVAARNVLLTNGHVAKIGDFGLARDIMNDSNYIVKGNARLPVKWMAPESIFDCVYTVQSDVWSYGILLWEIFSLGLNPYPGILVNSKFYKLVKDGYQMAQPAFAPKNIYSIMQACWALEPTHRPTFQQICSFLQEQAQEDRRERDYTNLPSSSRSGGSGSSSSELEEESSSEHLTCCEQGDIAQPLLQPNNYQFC
Procedure: A study was conducted to test certain compounds described in EXAMPLE 1 in inhibiting CSF1R kinase activity.
Activity of CSF1R kinase was determined using a CSF1R Kinase-Glo assay. Recombinant N-terminal GST-CSF1R (CSF1R residues L534-C972) containing the CSFIR kinase domain was expressed in Sf9 insect cells and purified. The kinase assay was carried out in 96-well plates at 30° C. for 180 min with the tested compounds in a final volume of 50 μl including the following components: 25 mM Tris-HCl pH 7.4, 4 mM MnCl2, 10 mM MgCl2, 0.01% BSA, 0.5 mM NA3VO4, 0.02% Triton X-100, 40 μM ATP, 2 mM DTT and 20 μM poly(Glu,Tyr) 4:1 peptide, and 600 ng recombinant GST-CSF1R. Following incubation, 50 μl Kinase-Glo Plus Reagent (Promega, Madison, WI, USA) was added and the mixture was incubated at 25° C. for 20 min. A 70-μL aliquot of each reaction mixture was transferred to a black microtiter plate and luminescence was measured on Wallac Vector 1420 multilabel counter (PerkinElmer, Shelton, CT, USA). Percentage inhibition values were obtained by comparison of reaction rate with the rates in control wells (i.e., in the absence of test compound). IC50 values were calculated from a series of percentage inhibition values determined at a range of test compound concentrations using GraphPad Prism version 6 software (GraphPad, San Diego, CA, USA).

| Structure (SMILES) | GI50 [1] [nM] | GI50 [2] [nM] | pIC50 [3] |
| --- | --- | --- | --- |
| O=C(Nc1ccccc1)Nc1ccc(Oc2ncnc3cc(N4CCC[C@@H]4CO)ccc23)cc1 [Compound 1] | 100 to 1000 | 100 to 1000 | 7.00 to 7.70 |
| COC1CCN(c2ccc3c(Oc4ccc(NC(=O)Nc5ccccc5)cc4)ncnc3c2)CC1 [Compound 2] | 20 to 100 | 20 to 100 | 7.00 to 7.70 |
| CN1CCN(c2ccc3c(Oc4ccc(NC(=O)Nc5ccccc5)cc4)ncnc3c2)CC1 [Compound 3] | 20 to 100 | 20 to 100 | 7.00 to 7.70 |
| CN(C)c1ccc2c(Oc3ccc(NC(=O)Nc4ccccc4)cc3)ncnc2c1 [Compound 4, 1-(4-((7-(dimethylamino)quinazolin-4-yl)oxy)phenyl)-3-phenylurea] | 20 to 100 | 20 to 100 | 7.00 to 7.70 |
| O=C(Nc1ccccc1)Nc1ccc(Oc2ncnc3cc(N[C@@H]4CCCC[C@H]4O)ccc23)cc1 [Compound 5] | – | 100 to 1000 | 7.00 to 7.70 |
| COC[C@@H]1CCCN1c1ccc2c(Oc3ccc(NC(=O)Nc4ccccc4)cc3)ncnc2c1 [Compound 6] | – | – | 7.00 to 7.70 |
| O=C(Nc1ccccc1)Nc1ccc(Oc2ncnc3cc(Br)ccc23)cc1 [Compound 7] | – | – | < 6.00 |
| O=C(Nc1ccccc1)Nc1ccc(Oc2ncnc3cc(F)ccc23)cc1 [Compound 8] | – | – | 6.00 to 7.00 |
| O=C(Nc1ccccc1)Nc1ccc(Oc2ncnc3cc(N4CCCC4)ccc23)cc1 [Compound 9] | 20 to 100 | 20 to 100 | 7.00 to 7.70 |
| COC[C@H]1CCCN1c1ccc2c(Oc3ccc(NC(=O)Nc4ccccc4)cc3)ncnc2c1 [Compound 10] | 100 to 1000 | 100 to 1000 | 7.00 to 7.70 |
| CN(C)C1CCN(c2ccc3c(Oc4ccc(NC(=O)Nc5ccccc5)cc4)ncnc3c2)CC1 [Compound 11] | 20 to 100 | 20 to 100 | 7.00 to 7.70 |
| COCCCNc1ccc2c(Oc3ccc(NC(=O)Nc4ccccc4)cc3)ncnc2c1 [Compound 12] | – | – | 7.00 to 7.70 |
| CN(C)c1ccc2c(Oc3ccc(NC(=O)Nc4ccc(C(F)(F)F)cc4)cc3)ncnc2c1 [Compound 13] | – | – | 6.00 to 7.00 |
| CN(C)c1ccc2c(Oc3ccc(NC(=O)Nc4ccccc4F)cc3)ncnc2c1 [Compound 14] | < 20 | 100 to 1000 | > 7.70 |
| CN(C)c1ccc2c(Oc3ccc(NC(=O)Nc4ccccc4Cl)cc3)ncnc2c1 [Compound 15] | 20 to 100 | 100 to 1000 | > 7.70 |
| CN(C)c1ccc2c(Oc3ccc(NC(=O)Nc4cccc(Cl)c4)cc3)ncnc2c1 [Compound 16] | 20 to 100 | 20 to 100 | > 7.70 |
| COC1CCN(c2ccc3c(Oc4ccc(NC(=O)Nc5cccc(Cl)c5)cc4)ncnc3c2)CC1 [Compound 17] | 20 to 100 | 20 to 100 | > 7.70 |
| CN(C)c1ccc2c(Oc3ccc(NC(=S)Nc4ccccc4)cc3)ncnc2c1 [Compound 22] | – | – | 6.00 to 7.00 |
| CCc1cc(Oc2ncnc3cc(N(C)C)ccc23)ccc1NC(=O)NCc1ccc(C(F)(F)F)nc1 [Compound 29] | – | – | 6.00 to 7.00 |
| Cc1cc(Oc2ncnc3cc(N(C)C)ccc23)c(C)cc1NC(=O)NCc1ccc(C(F)(F)F)nc1 [Compound 35] | – | – | < 6.00 |
| CN(C)c1ccc2c(Oc3ccc(NC(=O)NCc4ccc(C(F)(F)F)nc4)c(F)c3)ncnc2c1 [Compound 36] | – | 100 to 1000 | 7.00 to 7.70 |
| Cc1cc(Oc2ncnc3cc(N(C)C)ccc23)ccc1NC(=O)NCc1ccc(C(F)(F)F)nc1 [Compound 38] | – | – | < 6.00 |
| CN(CCCO)c1ccc2c(Oc3ccc(NC(=O)NCc4ccc(C(F)(F)F)nc4)cc3)ncnc2c1 [Compound 39] | – | 100 to 1000 | > 7.70 |
| CCOc1cc2ncnc(Oc3ccc(NC(=O)NCc4ccc(C(F)(F)F)nc4)cc3)c2cc1F [Compound 41] | 100 to 1000 | – | 7.00 to 7.70 |

| Structure (SMILES) | GI50 [1] [nM] | GI50 [2] [nM] | pIC50 [3] |
| --- | --- | --- | --- |
| CN(C)c1ccc2c(Oc3ccc(N(C)C(=O)NCc4ccc(C(F)(F)F)nc4)cc3)ncnc2c1 [Compound 47] | – | – | < 6.00 |
| CN(C)c1ccc2c(Oc3ccc(NC(=O)NCC4CCCCC4)cc3)ncnc2c1 [Compound 50] | – | – | 7.00 to 7.70 |
| CN(C)c1ccc2c(Oc3ccc(NC(=O)Nc4cccc5ccccc45)cc3)ncnc2c1 [Compound 52] | – | – | 6.00 to 7.00 |
| CN(C)c1ccc2c(Oc3ccc(NC(=O)Nc4cccc(C(F)(F)F)c4)cc3)ncnc2c1 [Compound 53] | – | – | 6.00 to 7.00 |
| CN(C)c1ccc2c(Oc3ccc(NC(=O)NCc4cccnc4)cc3)ncnc2c1 [Compound 54] | – | – | 6.00 to 7.00 |
| COc1ccc(CNC(=O)Nc2ccc(Oc3ncnc4cc(N(C)C)ccc34)cc2)cc1OC [Compound 55] | – | – | 7.00 to 7.70 |
| CN(C)c1ccc2c(Oc3ccc(NC(=O)NCc4ccc(C#N)cc4)cc3)ncnc2c1 [Compound 60] | – | – | 7.00 to 7.70 |
| CN(C)c1ccc2c(Oc3ccc(NC(=O)NCc4ccc(C(F)(F)F)cc4)c(F)c3)ncnc2c1 [Compound 61] | – | – | 6.00 to 7.00 |
| CN(C)c1ccc2c(Oc3ccc(NC(=O)NCc4c(F)c(F)c(F)c(F)c4F)cc3)ncnc2c1 [Compound 62] | 100 to 1000 | – | > 7.70 |
| COc1ccc(CNC(=O)Nc2ccc(Oc3ncnc4cc(N(C)C)ccc34)cc2C)cc1 [Compound 64] | – | – | < 6.00 |
| CN(C)c1ccc2c(Oc3ccc4c(cnn4C(=O)NCc4ccc(C(F)(F)F)nc4)c3)ncnc2c1 [Compound 69] | – | – | < 6.00 |
| CN(C)c1ccc2c(Nc3ccc(NC(=O)Nc4ccccc4)cc3)ncnc2c1 [Compound 71] | – | – | 6.00 to 7.00 |
| COCCCNC(=O)c1cc(Oc2ccc(NC(=O)Nc3ccccc3)cc2)ccn1 [Compound 72] | – | – | < 6.00 |
| CN(C)c1ccc2c(Oc3ccc(NC(=O)NCc4ccc(C(F)(F)F)nc4)cc3)ccnc2c1 [Compound 73] | – | – | 7.00 to 7.70 |
| CN(C)c1ccc2c(Oc3ccc(NC(=O)NCc4ccc(C(F)(F)F)nc4)cc3)c(C#N)cnc2c1 [Compound 75] | – | – | < 6.00 |
| O=C(NCc1ccc(C(F)(F)F)nc1)Nc1ccc(Oc2ccnc(C(=O)NCCCN3CCOCC3)c2)cc1 [Compound 77] | – | – | 6.00 to 7.00 |
| CN(C)c1ccc2c(Oc3cnc4c(ccn4C(=O)NCc4ccc(C(F)(F)F)nc4)c3)ncnc2c1 [Compound 83] | – | – | 6.00 to 7.00 |
| CN(C)c1ccc2c(Oc3ccc(NC(=O)NCc4ccn(C)n4)cc3)ncnc2c1 [Compound 84] | – | – | 6.00 to 7.00 |
| Cn1cc(-c2ccc3c(Oc4ccc(NC(=O)NCc5ccc(C(F)(F)F)nc5)cc4)ncnc3c2)cn1 [Compound 85] | – | – | 7.00 to 7.70 |
| COC(C)(C)CNC(=O)Nc1ccc(Oc2ncnc3cc(N(C)C)ccc23)cc1 [Compound 87] | – | – | < 6.00 |
| CN(C)c1ccc2c(Oc3ccc4c(ccn4C(=O)NCc4ccc(C(F)(F)F)nc4)n3)ncnc2c1 [Compound 89] | – | – | 6.00 to 7.00 |
| CN(C)c1ccc2c(Oc3ccc(NC(=O)NCC(C)(C)C)cc3)ncnc2c1 [Compound 90] | – | – | 6.00 to 7.00 |
| O=C(NCc1ccc(C(F)(F)F)nc1)Nc1ccc(Oc2ncnc3[nH]ccc23)cc1 [Compound 93] | – | – | 7.00 to 7.70 |
| CNc1ccc2c(Oc3ccc(NC(=O)Nc4ccccc4)cc3)ncnc2c1 [Compound 107] | – | – | 7.00 to 7.70 |
